In patent US20030044399A1, “Method of treatment” (SmithKline Beecham Corporation, priority 1998, published 2003):

How the values were obtained:
[1] = target: Schisto B 1 (Schistosoma mansoni, UniProt P25792); assay: Cysteine protease inhibition, progress curve method, schistosoma B 1; type: biochemical; settings: 10 uM Cbz-Phe-Arg-AMC, 100 mM Na acetate pH 5.5, 5 mM cysteine; read-out: Schisto B 1 Ki
Protocol: (§1) Standard assay conditions for the determination of kinetic constants used 10 uM fluorogenic peptide substrate, Cbz-Phe-Arg-AMC for the cysteine proteases from Leishmania spp and Schistosoma Mansoni, Cbz-Leu-Arg-AMC for the cysteine proteases from Plasmodium falciparum and Trypanosoma brucei rhodesiensi, and Ac-Lys-Glu-Lys-Leu-Arg-AMC (4 uM final substrate concentration) for the cysteine protease from Trypoanosoma cruzi, and were determined in 100 mM Na acetate at pH 5.5 containing 5 mM cysteine. Stock substrate solutions were prepared at concentrations of […] in DMSO with 10 uM (4 uM for Ac-Lys-Glu-Lys-Leu-Arg-AMC) final substrate concentration in the assays. The final DMSO concentration was 2% and the final volume was 100 uL. All assays were conducted at ambient temperature. Product progress curves were generated over 20 to 30 minutes following formation of AMC product.
(§2) Potential inhibitors were evaluated using the progress curve method. Assays were carried out in the presence of variable concentrations of test compound. Reactions were initiated by addition of enzyme to buffered solutions of inhibitor and substrate. Data analysis was conducted according to one of two procedures depending on the appearance of the progress curves in the presence of inhibitors. For those compounds whose progress curves were linear, apparent inhibition constants (Ki,app) were calculated according to equation 1 (Brandt et al., Biochemitsry, 1989, 28, 140):
(§3) v=VmA/[Ka(1+I/Ki,app)+A] (1)
(§4) Where v is the velocity of the reaction with maximal velocity Vm, A is the concentration of substrate with Michaelis constant of Ka, and I is the concentration of inhibitor.
(§5) [AMC]=vsst+(v0−vss)[1−exp (−kobst)]/kobs (2)
(§6) Where [AMC] is the concentration of product formed over time t, v0 is the initial reaction velocity and vss is the final steady state rate. Values for kobs were then analyzed as a linear function of inhibitor concentration to generate an apparent second order rate constant (kobs/inhibitor concentration or kobs/[I]) describing the time-dependent inhibition. A complete discussion of this kinetic treatment has been fully described (Morrison et al., Adv. Enzymol. Relat. Areas Mol. Biol., 1988, 61, 201).
(§7) Exemplary inhibition data for the compounds used in the present method collected in accordance with the above-described procedure are listed in Table I.

[2] = target: Schisto B 2 (Schistosoma mansoni, UniProt Q95PM1); assay: Cysteine protease inhibition, progress curve method, schistosoma B 2; type: biochemical; settings: 10 uM Cbz-Phe-Arg-AMC, 100 mM Na acetate pH 5.5, 5 mM cysteine
Chain of Schisto B 2 (Q95PM1 entry or part of it): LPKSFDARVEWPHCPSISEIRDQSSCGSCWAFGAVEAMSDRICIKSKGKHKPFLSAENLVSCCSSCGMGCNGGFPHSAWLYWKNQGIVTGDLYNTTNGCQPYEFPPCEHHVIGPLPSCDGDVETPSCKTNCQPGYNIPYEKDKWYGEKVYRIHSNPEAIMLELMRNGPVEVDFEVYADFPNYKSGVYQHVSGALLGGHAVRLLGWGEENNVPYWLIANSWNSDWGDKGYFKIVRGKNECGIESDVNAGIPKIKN
Protocol: as §1, §2, §3, §4, §5, §6, §7

[3] = target: Falcipain 2 (Plasmodium falciparum, UniProt Q8I6U4); assay: Cysteine protease inhibition, progress curve method, falcipain; type: biochemical; settings: 10 uM Cbz-Leu-Arg-AMC, 100 mM Na acetate pH 5.5, 5 mM cysteine
Chain of Falcipain 2 (Q8I6U4 244-484): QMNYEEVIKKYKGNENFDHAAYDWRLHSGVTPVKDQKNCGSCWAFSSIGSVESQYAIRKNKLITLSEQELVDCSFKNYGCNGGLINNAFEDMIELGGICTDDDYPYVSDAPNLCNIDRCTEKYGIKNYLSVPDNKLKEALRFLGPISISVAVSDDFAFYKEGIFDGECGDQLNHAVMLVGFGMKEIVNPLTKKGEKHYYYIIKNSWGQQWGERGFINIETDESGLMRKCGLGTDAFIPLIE
Protocol: as §1, §2, §3, §4, §5, §6, §7

[4] = target: Cruzain (Trypanosoma cruzi, UniProt P25779); assay: Cysteine protease inhibition, progress curve method, cruzain; type: biochemical; settings: 4 uM Ac-Lys-Glu-Lys-Leu-Arg-AMC, 100 mM Na acetate pH 5.5, 5 mM cysteine; read-out: Cruzain Ki
Chain of Cruzain (P25779 123-337): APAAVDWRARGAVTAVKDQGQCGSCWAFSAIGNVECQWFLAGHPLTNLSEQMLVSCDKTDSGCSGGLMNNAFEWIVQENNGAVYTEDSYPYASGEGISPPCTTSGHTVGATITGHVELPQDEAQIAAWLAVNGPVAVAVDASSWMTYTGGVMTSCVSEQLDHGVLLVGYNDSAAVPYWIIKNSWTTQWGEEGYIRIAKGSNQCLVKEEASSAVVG
In short: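 Buffer was 100 mM sodium acetate pH 5.5 with 5 mM cysteine and 2% DMSO, at ambient temperature; reactions started with enzyme, and AMC formation was followed for 20–30 min. Substrates: Leishmania and Schistosoma, 10 uM Cbz-Phe-Arg-AMC; falcipain, 10 uM Cbz-Leu-Arg-AMC; cruzain, 4 uM Ac-Lys-Glu-Lys-Leu-Arg-AMC. Linear curves gave Ki,app; curved ones gave kobs/[I].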

[5] = target: Rhodazain (Trypanosoma brucei rhodesiense, UniProt Q95PM0); assay: Cysteine protease inhibition, progress curve method, rhodazain; type: biochemical, Trypanosoma brucei rhodesiensi; settings: Rhodazain Ki (nM), 10 uM Cbz-Leu-Arg-AMC, 100 mM Na acetate pH 5.5, 5 mM cysteine
Chain of Rhodazain (Q95PM0 entry or part of it): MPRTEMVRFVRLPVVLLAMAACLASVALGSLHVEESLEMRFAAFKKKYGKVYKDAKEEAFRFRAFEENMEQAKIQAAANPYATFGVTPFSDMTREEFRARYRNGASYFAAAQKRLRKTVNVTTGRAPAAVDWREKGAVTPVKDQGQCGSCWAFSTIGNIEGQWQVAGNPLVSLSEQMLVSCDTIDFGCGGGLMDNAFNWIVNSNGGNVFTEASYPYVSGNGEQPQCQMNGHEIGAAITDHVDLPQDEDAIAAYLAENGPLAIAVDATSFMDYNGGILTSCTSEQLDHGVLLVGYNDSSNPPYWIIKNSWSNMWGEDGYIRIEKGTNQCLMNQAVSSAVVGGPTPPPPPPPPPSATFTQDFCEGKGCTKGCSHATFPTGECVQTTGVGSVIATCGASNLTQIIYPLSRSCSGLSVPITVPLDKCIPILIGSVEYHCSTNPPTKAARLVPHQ

Chain of Schisto B 1 (P25792 89-340): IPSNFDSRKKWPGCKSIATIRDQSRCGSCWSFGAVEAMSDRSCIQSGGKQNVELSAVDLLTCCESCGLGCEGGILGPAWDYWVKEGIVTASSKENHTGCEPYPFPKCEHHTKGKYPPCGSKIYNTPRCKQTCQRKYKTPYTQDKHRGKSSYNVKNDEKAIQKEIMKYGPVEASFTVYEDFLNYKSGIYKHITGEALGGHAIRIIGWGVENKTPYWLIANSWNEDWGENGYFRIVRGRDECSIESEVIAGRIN

Ki [1] [nM]	Ki [2] [nM]	SMILES	Ki [3] [nM]	Ki [4] [nM]	Ki [5] [nM]
160	1100	CC(C)C[C@H](NC(=O)c1cc2ccccc2n1C)C(=O)N[C@H]1CCCN(S(=O)(=O)c2ccc(F)cc2)CC1=O [Example 84]			
68	280	COc1cccc(S(=O)(=O)N2CCC[C@H](NC(=O)[C@H](CC(C)C)NC(=O)c3cc4ccccc4s3)C(=O)C2)c1 [Example 140, Benzo[b]thiophene-2-carboxylic acid-{(S)-1-[1-(3-methoxy-benzenesulfonyl)-3-oxo-azepan-4-ylcarbamoyl]-3-methyl-butyl}-amide]			
		CC(C)C[C@H](NC(=O)c1cc2ccccc2s1)C(=O)N[C@H]1C[C@H](C)CN(S(=O)(=O)c2ccccn2)CC1=O [Example 197, Benzo[b]thiophene-2-carboxylic acid {(S)-3-methyl-1-[6-methyl-3-oxo-1-(pyridine-2-sulfonyl)-azepan-4-ylcarbamoyl]-butyl}-amide]	4.1	3.1	2.3
		CC(C)C[C@H](NC(=O)c1cc2sccc2s1)C(=O)N[C@H]1CCCN(C(=O)Nc2ccccc2F)CC1=O [Example 218, Thieno[3,2-b]thiophene-2-carboxylic acid {(S)-1-[1-(2-fluoro-phenylcarbamoyl)-3-oxo-azepan-4-ylcarbamoyl]-3-methyl-butyl}-amide]	3.1	5.4	2.3
31	120	CC(C)CC(NC(=O)c1cc2ccccc2o1)C(=O)N[C@@H]1CCCN(S(=O)(=O)c2ccc(F)cc2)CC1=O (some centres unmarked) [Example 109]			
100	320	CC(C)C[C@@H](NC(=O)c1cc2cc(OCCN3CCOCC3)ccc2o1)C(=O)NC1CCCN(C(=O)Cc2cccc(-c3ccccn3)c2)CC1=O (single isomer, unassigned) [Example 4]			
		Cc1c(C(=O)N[C@@H](CC(C)C)C(=O)N[C@H]2C[C@H](C)CN(S(=O)(=O)c3ccccn3)CC2=O)oc2ccccc12 [Example 199, 3-Methyl-benzofuran-2-carboxylic acid {(S)-3-methyl-1-[6-methyl-3-oxo-1-(pyridine-2-sulfonyl)-azepan-4-ylcarbamoyl]-butyl}-amide]	5.6	2.3	2
50	400	COc1cccc(S(=O)(=O)N2CCC[C@H](NC(=O)[C@H](CC(C)C)NC(=O)c3cc4ccccc4n3C)C(=O)C2)c1 [Example 141, 1-Methyl-1H-indole-2-carboxylic acid-{(S)-1-[1-(3-methoxy-benzenesulfonyl)-3-oxo-azepan-4-ylcarbamoyl]-3-methyl-butyl}-amide]			
		CC(C)CC(NC(=O)c1cc2ccccc2o1)C(=O)N[C@H]1CCCN(S(=O)(=O)c2nccn2C)CC1=O (some centres unmarked) [Example 40]	4.5	2.3	2
		COc1ccc2oc(C(=O)N[C@@H](CC(C)C)C(=O)N[C@H]3CCCN(S(=O)(=O)c4nccs4)CC3=O)cc2c1 [Example 124, 5-Methoxybenzofuran-2-carboxylic acid {(S)-3-methyl-1-[3-oxo-1-(thiazole-2-sulfonyl)-azepan-4-ylcarbamoyl]-buty}amide]	4.9	2	2.2
78	360	Cc1c(C(=O)N[C@@H](CC(C)C)C(=O)N[C@H]2CCCN(S(=O)(=O)c3ccc(Cl)cc3)CC2=O)oc2ccccc12 [Example 134, 3-Methyl-benzofuran-2-carboxylic acid-{(S)-1-[1-(4-chloro-benzenesulfonyl)-3-oxo-azepan-4-ylcarbamoyl]-3-methyl-butyl}-amide]			
45	130	COc1ccc2oc(C(=O)N[C@@H](CC(C)C)C(=O)N[C@H]3CCCN(S(=O)(=O)c4ccc(F)cc4)CC3=O)cc2c1 [Example 85]			
		COc1ccc2oc(C(=O)N[C@@H](CC(C)C)C(=O)N[C@H]3CCCN(C(=O)Nc4ccccc4F)CC3=O)cc2c1 [Example 221, 5-Methoxy-benzofuran-2-carboxylic acid {(S)-1-[1-(2-fluoro-phenylcarbamoyl)-3-oxo-azepan-4-ylcarbamoyl]-3-methyl-butyl}-amide]	2	3	1.2
		CC(C)C[C@@H](NC(=O)c1cnc2ccccc2c1)C(=O)N[C@@H]1CCCN(S(=O)(=O)c2ccccn2)CC1=O (single isomer, unassigned) [Example 156]	6.2	4.1	2.6
		CC(C)CC(NC(=O)c1ccc2c(c1)OCO2)C(=O)N[C@@H]1CCCN(S(=O)(=O)c2cccc[n+]2[O-])CC1=O (single isomer, unassigned) [Example 76]	7.8	14	5.4
		CC(C)C[C@@H](NC(=O)c1ccc2ccccc2c1)C(=O)N[C@@H]1CCCN(S(=O)(=O)c2ccccn2)CC1=O (single isomer, unassigned) [Example 155]	6.1	4.1	3
		COc1cc2cc(C(=O)N[C@@H](CC(C)C)C(=O)NC3CCCN(S(=O)(=O)c4cn(C)cn4)CC3=O)oc2cc1OC (stereo partly drawn) [Example 39, 5,6-Dimethoxy-benzofuran-2-carboxylic acid {(S)-3-methyl-1-[3-oxo-1-(1-methyl-1H-imidazole-4-sulfonyl)-azepan-4-ylcarbamoyl]-butyl}amide]	3.9	7.4	2.2
		COc1ccc2oc(C(=O)N[C@@H](CC(C)C)C(=O)N[C@H]3C[C@H](C)CN(S(=O)(=O)c4ccccn4)CC3=O)cc2c1 [Example 198, 5-Methoxy-benzofuran-2-carboxylic acid {(S)-3-methyl-1-[6-methyl-3-oxo-1-(pyridine-2-sulfonyll)-azepan-4-ylcarbamoyl]-butyl}-amide]	3.6	1.9	1.6
		CC(C)C[C@@H](NC(=O)c1ccc2c(c1)OCO2)C(=O)N[C@@H]1CCCN(S(=O)(=O)c2ccccn2)CC1=O (stereo in doubt) [Example 59, Benzo[1,3]dioxole-5-carboxylic acid {(S)-3-methyl-1-[3-oxo-1-(pyridine-2-sulfonyl)-azepan-4-ylcarbamoyl]-butyl}amide]	3.4	3.4	2.4
		COc1cccc2cc(C(=O)N[C@@H](CC(C)C)C(=O)N[C@@H]3CCCN(S(=O)(=O)c4cccs4)CC3=O)oc12 [Example 144, 7-Methoxy-benzofuran-2-carboxylic acid-{(S)-3-methyl-1-[3-oxo-1-(thiophene-2-sulfonyl)-azepan-4-ylcarbamoyl]-butyl}-amide]	6.2	5.5	8.6
		CC(C)C[C@@H](NC(=O)c1ccnc2ccccc12)C(=O)N[C@@H]1CCCN(S(=O)(=O)c2ccccn2)CC1=O (single isomer, unassigned) [Example 153]	4.5	2.4	1.6
		CC(C)CC(NC(=O)c1nc(-c2ccccc2)oc1C(F)(F)F)C(=O)NC1CCCN(S(=O)(=O)c2ccccn2)CC1=O (single isomer, unassigned) [Example 105]	84	13	5.3
		CC(C)C[C@@H](NC(=O)c1cc2ccccc2o1)C(=O)N[C@@H]1CCCN(S(=O)(=O)c2cccc[n+]2[O-])CC1=O [Example 45]	5.7	4.1	2.8
		COc1ccc2oc(C(=O)N[C@H](CC(C)C)C(=O)N[C@@H]3CCCN(S(=O)(=O)c4ncccc4C)CC3=O)cc2c1 (stereo in doubt) [Example 162, 5-Methoxy-benzofuran-2-carboxylic acid {(S)-3-methyl-1-[1-(3-methyl-pyridine-2-sulfonyl)-3-oxo-azepan-4-ylcarbamoyl]-butyl}amide]	6.1	2.7	2.5
